Data published in patent publication US8497383B2, “HIV protease inhibitors” (Merck Sharp & Dohme Corp., priority 2009, dated 2013).

Columns and labels:
wild-type HIV-1 protease = biological target: T1, wild-type HIV-1 protease (Human immunodeficiency virus type 1 group M subtype B, UniProt P04585); assay: Assay for inhibition of microbial expressed HIV protease; assay type: biochemical
T1 construct: the protease (which was expressed in Eschericia coli); made in house; host or cells: Escherichia coli
Experimental: Inhibition studies of the reaction of the protease (which was expressed in Eschericia coli) with a peptide substrate [Val-Ser-Gln-Asn-(betanapthyl)Ala-Pro-Ile-Val] (SEQ ID NO: 1). The inhibitor is first preincubated with the enzyme in assay buffer (50 mM sodium acetate, pH 5.5, 100 mM NaCl, and 0.1% BSA) for 30 minutes at room temperature. Substrate is added to 440 micromolar in a total volume of 80 microliters containing 5 picomolar HIV-1 protease, and the reaction is incubated for 1 hour at 30° C. The reaction is quenched by addition of 120 microliters of 10% phosphoric acid, and product formation is determined after separation of product and substrate on a Vydac C18 column connected to an Alliance high performance liquid chromatography system (Waters Corporation). The extent of inhibition of the reaction is determined from the peak area of the products.

[1] = test system: acute HIV infection of T-lymphoid cells (HIV-1 replication); assay: Assay for inhibition of HIV replication (Spread Assay); assay type: cell-based; details: Human immunodeficiency virus 1, T-lymphoid, 10% FBS
Experimental: Assays for the inhibition of acute HIV infection of T-lymphoid cells were conducted in accordance with Vacca, J. P. et al., Proc. Natl. Acad. Sci. USA 1994, 91: 4096.

COC(=O)N[C@H](C(=O)NCCC[C@@H]1CNC[C@H]1N(CCC(C)C)S(=O)(=O)c1ccc(N)cc1)C(c1ccccc1)c1ccccc1 (relative stereo) [Example 12, N-{3-[(3R*,4S*)-4-{[(4-aminophenyl)sulfonyl](3-methylbutyl)amino}pyrrolidin-3-yl]propyl}-Nα-(methoxycarbonyl)-β-phenyl-L-phenylalaninamide]
IC50 (wild-type HIV-1 protease): 0.05 nM | IC95 [1]: 324 nM

COC(=O)N[C@H](C(=O)NCCN[C@@H]1CNC[C@H]1N(CCC(C)C)S(=O)(=O)c1ccc(N)cc1)C(c1ccccc1)c1ccccc1 [Example 1, N-(2-{[(3R,4R)-4-{[(4-aminophenyl)sulfonyl](3-methylbutyl)amino}pyrrolidin-3-yl]amino}ethyl)-Nα-(methoxycarbonyl)-β-phenyl-L-phenylalaninamide]
IC50 (wild-type HIV-1 protease): 0.7 nM | IC95 [1]: 495 nM

COC(=O)N[C@H](C(=O)N[C@@H](C)CN[C@@H]1CNC[C@H]1N(CCC(C)C)S(=O)(=O)c1ccc(N)cc1)C(c1ccccc1)c1ccccc1 [Example 2, N-[(2S)-1-{[(3R,4R)-4-{[(4-aminophenyl)sulfonyl](3-methylbutyl)amino}pyrrolidin-3-yl]amino}propan-2-yl]-Nα-(methoxycarbonyl)-β-phenyl-L-phenylalaninamide]
IC50 (wild-type HIV-1 protease): 0.055 nM | IC95 [1]: 423 nM

CC[C@@H](CN[C@@H]1CNC[C@H]1N(CCC(C)C)S(=O)(=O)c1ccc(N)cc1)NC(=O)[C@@H](NC(=O)OC)C(c1ccccc1)c1ccccc1 [Example 3, N-[(2S)-1-{[(3R,4R)-4-{[(4-aminophenyl)sulfonyl](3-methylbutyl)amino}pyrrolidin-3-yl]amino}butan-2-yl]-Nα-(methoxycarbonyl)-β-phenyl-L-phenylalaninamide]
IC50 (wild-type HIV-1 protease): 0.22 nM | IC95 [1]: 472 nM

CCCCC(CN[C@@H]1CNC[C@H]1N(CCC(C)C)S(=O)(=O)c1ccc(N)cc1)NC(=O)[C@@H](NC(=O)OC)C(c1ccccc1)c1ccccc1 (stereo partly drawn) [Example 4, N-(1-{[(3R,4R)-4-{[(4-aminophenyl)sulfonyl](3-methylbutyl)amino}pyrrolidin-3-yl]amino}hexan-2-yl)-Nα-(methoxycarbonyl)-β-phenyl-L-phenylalaninamide]
IC50 (wild-type HIV-1 protease): 3.6 nM | IC95 [1]: 399 nM

COC(=O)N[C@H](C(=O)N[C@H](CN[C@@H]1CNC[C@H]1N(CCC(C)C)S(=O)(=O)c1ccc(N)cc1)CC(C)C)C(c1ccccc1)c1ccccc1 [Example 5, N-[(2S)-1-{[(3R,4R)-4-{[(4-aminophenyl)sulfonyl](3-methylbutyl)amino}pyrrolidin-3-yl]amino}-4-methylpentan-2-yl]-Nα-(methoxycarbonyl)-β-phenyl-L-phenylalaninamide]
IC50 (wild-type HIV-1 protease): 3.2 nM | IC95 [1]: 405 nM

COC(=O)N[C@H](C(=O)NC(C)(C)CN[C@@H]1CNC[C@H]1N(CCC(C)C)S(=O)(=O)c1ccc(N)cc1)C(c1ccccc1)c1ccccc1 [Example 6, N-(1-{[(3R,4R)-4-{[(4-aminophenyl)sulfonyl](3-methylbutyl)amino}pyrrolidin-3-yl]amino}-2-methylpropan-2-yl)-Nα-(methoxycarbonyl)-β-phenyl-L-phenylalaninamide]
IC50 (wild-type HIV-1 protease): 0.05 nM | IC95 [1]: 291 nM

COC(=O)N[C@H](C(=O)NCCN[C@@H]1CNC[C@H]1N(CC(C)C)S(=O)(=O)c1ccc(N)cc1)C(c1ccccc1)c1ccccc1 [Example 7, N-(2-{[(3R,4R)-4-{[(4-aminophenyl)sulfonyl](2-methylpropyl)amino}pyrrolidin-3-yl]amino}ethyl)-Nα-(methoxycarbonyl)-β-phenyl-L-phenylalaninamide]
IC50 (wild-type HIV-1 protease): 3.7 nM | IC95 [1]: 500 nM

COC(=O)N[C@H](C(=O)NCCN[C@@H]1CNC[C@H]1N(C(C)C)S(=O)(=O)c1ccc(N)cc1)C(c1ccccc1)c1ccccc1 [Example 8, N-(2-{[(3R,4R)-4-{[(4-aminophenyl)sulfonyl](isopropyl)amino}pyrrolidin-3-yl]amino}ethyl)-Nα-(methoxycarbonyl)-β-phenyl-L-phenylalaninamide]
IC50 (wild-type HIV-1 protease): 22 nM | inhibition at 0.5 µM ([1]; @ 500 nM, read-out: Spread - inhibition at a fixed concentration): 26%

COC(=O)N[C@H](C(=O)NCCN[C@@H]1CNC[C@H]1N(Cc1ccccc1)S(=O)(=O)c1ccc(N)cc1)C(c1ccccc1)c1ccccc1 [Example 9, N-(2-{[(3R,4R)-4-{[(4-aminophenyl)sulfonyl](benzyl)amino}pyrrolidin-3-yl]amino}ethyl)-Nα-(methoxycarbonyl)-β-phenyl-L-phenylalaninamide]
IC50 (wild-type HIV-1 protease): 8.6 nM | IC95 [1]: 505 nM

COC(=O)N[C@H](C(=O)NCCN(C)[C@@H]1CNC[C@H]1N(CCC(C)C)S(=O)(=O)c1ccc(N)cc1)C(c1ccccc1)c1ccccc1 [Example 10, N-{2-[{(3R,4R)-4-[[(4-aminophenyl)sulfonyl](3-methylbutyl)amino]pyrrolidin-3-yl}(methyl)amino]ethyl}-N-alpha-(methoxycarbonyl)-beta-phenyl-L-phenylalaninamide]
IC50 (wild-type HIV-1 protease): 15 nM | IC95 [1]: 217 nM

COC(=O)N[C@H](C(=O)NCCN[C@@H]1CNC[C@H]1N(CCC(C)C)S(=O)(=O)c1ccc(CO)cc1)C(c1ccccc1)c1ccccc1 [Example 11, N-[2-({(3R,4R)-4-[{[4-(hydroxymethyl)phenyl]sulfonyl}(3-methylbutyl)amino]pyrrolidin-3-yl}amino)ethyl]-Nalpha-(methoxycarbonyl)-beta-phenyl-L-phenylalaninamide]
IC50 (wild-type HIV-1 protease): 0.29 nM | IC95 [1]: 328 nM
